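GI50 = concentration required for 50% inhibition of growth. The concentration for full growth arrest is given as TGI.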
What was measured:
Test in all cases: inhibition of tumour cell growth, NCI panel, 384-well format; in the data active means GI50 below about 0.43 µM; inactive means the rest
[1] = tested on: 786-0 renal
[2] = tested on: A498 renal
[3] = tested on: U251 glioblastoma
[4] = tested on: NCI-H460 NSCLC
[5] = tested on: EKVX NSCLC
[6] = tested on: SF-295 CNS
[7] = tested on: LOX IMVI melanoma
[8] = tested on: UO-31 renal
[9] = tested on: ACHN renal
[10] = tested on: IGROV1 ovarian
[11] = tested on: KM12 colon
[12] = tested on: RXF 393 renal
[13] = tested on: OVCAR-5 ovarian
[14] = tested on: NCI-H226 lung
[15] = tested on: HOP-92 NSCLC
[16] = tested on: UACC-62 melanoma
[17] = tested on: K-562 leukemia
[18] = tested on: HCT-116 colon
[19] = tested on: SF-539 CNS
[20] = tested on: MCF7 breast
[21] = tested on: MDA-MB-231 breast
[22] = tested on: TK-10 renal
[23] = tested on: OVCAR-8 ovarian
[24] = tested on: OVCAR-3 ovarian
[25] = tested on: SF-268 CNS
[26] = tested on: HOP-62 NSCLC
[27] = tested on: PC-3 prostate
[28] = tested on: A549 NSCLC
[29] = tested on: SNB-19 CNS
[30] = tested on: HCT-15 colon
[31] = tested on: CAKI-1 renal
[32] = tested on: SK-OV-3 ovarian
[33] = tested on: OVCAR-4 ovarian
[34] = tested on: SN12C renal
[35] = tested on: NCI-H322M lung
[36] = tested on: NCI/ADR-RES ovarian
[37] = tested on: BT-549 breast
[38] = tested on: HS 578T breast
[39] = tested on: SK-MEL-5 melanoma
[40] = tested on: NCI-H23 lung
[41] = tested on: SK-MEL-28 melanoma
[42] = tested on: DU-145 prostate
[43] = tested on: SNB-75 CNS
[44] = tested on: COLO 205 colon
[45] = tested on: SW-620 colon
[46] = tested on: MDA-MB-435 melanoma
[47] = tested on: UACC-257 melanoma
[48] = tested on: MALME-3M melanoma
[49] = tested on: NCI-H522 lung
[50] = tested on: HL-60(TB) leukemia
[51] = tested on: T-47D breast
[52] = tested on: M14 melanoma
[53] = tested on: RPMI-8226 leukemia
[54] = tested on: MDA-MB-468 breast
[55] = tested on: SR leukemia
[56] = tested on: HT29 colon
[57] = tested on: HCC-2998 colon
[58] = tested on: MOLT-4 leukemia

CC(=O)O[C@H]1C(=O)[C@@]2(C)[C@H]([C@H](OC(=O)c3ccccc3)[C@]3(O)C[C@H](OC(=O)[C@H](O)[C@@H](NC(=O)c4ccccc4)c4ccccc4)C(C)=C1C3(C)C)[C@]1(OC(C)=O)CO[C@@H]1C[C@@H]2O
> 71.1 µM: TGI [29]
0.0102 µM: TGI [23]
22.7 µM: TGI [21]
> 69.5 µM: TGI [33]
> 100 µM: TGI [11] | TGI [18] | TGI [27] | TGI [31] | TGI [35]
0.0364 µM: TGI [6]
31.4 µM: TGI [25]
25 µM: TGI [30]
> 46.2 µM: TGI [20]
< 0.013 µM: TGI [4] | TGI [17]
inactive: GI50 [14] 0.745 µM | GI50 [36] 3.1 µM
99.9 µM: TGI [34]
0.022 µM: TGI [12]
9.24 µM: TGI [36]
> 83.8 µM: TGI [13]
18.8 µM: TGI [16]
> 31.6 µM: TGI [3] | TGI [5] | TGI [32]
36.3 µM: TGI [2]
> 54.4 µM: TGI [1]
0.0123 µM: TGI [19]
0.144 µM: TGI [24]
> 69.3 µM: TGI [8]
> 46.4 µM: TGI [28]
14.7 µM: TGI [26]
19.2 µM: TGI [14]
> 67.9 µM: TGI [10]
28 µM: TGI [15] | TGI [22]
37.3 µM: TGI [7]
45.8 µM: TGI [9]
active: GI50 [1] 0.0191 µM | GI50 [2] 0.0265 µM | GI50 [5] 0.039 µM | GI50 [6] 0.0114 µM | GI50 [8] 0.348 µM | GI50 [9] 0.0611 µM | GI50 [12] < 0.0116 µM | GI50 [22] 0.0337 µM | GI50 [30] 0.0889 µM | GI50 [31] 0.0507 µM | GI50 [35] 0.014 µM

CNC(=O)c1ccc(N2C(=S)N(c3ccc(C#N)c(C(F)(F)F)c3)C(=O)C2(C)C)cc1F
49.7 µM: TGI [55]
84.9 µM: TGI [26]
80.2 µM: TGI [54]
35.3 µM: TGI [58]
85.7 µM: TGI [12]
90.9 µM: TGI [36]
92.6 µM: TGI [33]
95.5 µM: TGI [37]
34.5 µM: TGI [50]
40.4 µM: TGI [9]
inactive: GI50 [1] > 100 µM | GI50 [37] 31.7 µM | GI50 [2] 54.7 µM | GI50 [38] 30.9 µM | GI50 [3] 61.9 µM | GI50 [39] 41.4 µM | GI50 [4] 38.9 µM | GI50 [5] 44.8 µM | GI50 [6] 31.6 µM | GI50 [40] 31.3 µM | GI50 [41] > 100 µM | GI50 [7] 49.6 µM | GI50 [8] 63.1 µM | GI50 [9] 19.8 µM | GI50 [42] 37.5 µM | GI50 [10] 52.1 µM | GI50 [11] 69.1 µM | GI50 [43] 48.5 µM | GI50 [12] 29.6 µM | GI50 [13] > 100 µM | GI50 [14] 29.9 µM | GI50 [15] > 100 µM | GI50 [44] 95.5 µM | GI50 [45] > 100 µM | GI50 [16] > 100 µM | GI50 [46] > 100 µM | GI50 [18] 33.7 µM | GI50 [19] > 100 µM | GI50 [20] 37.6 µM | GI50 [21] 95.6 µM | GI50 [22] > 100 µM | GI50 [47] 72.4 µM | GI50 [23] 37.6 µM | GI50 [24] 59.2 µM | GI50 [48] 24.1 µM | GI50 [25] 72.2 µM | GI50 [26] 27.5 µM | GI50 [27] 49.6 µM | GI50 [49] 74 µM | GI50 [50] 17 µM | GI50 [28] 34.4 µM | GI50 [29] 85.4 µM | GI50 [51] 32.9 µM | GI50 [52] 81.9 µM | GI50 [53] 32 µM | GI50 [30] 46 µM | GI50 [54] 26.9 µM | GI50 [31] 90.8 µM | GI50 [32] > 100 µM | GI50 [55] 33.5 µM | GI50 [33] 34.7 µM | GI50 [34] > 100 µM | GI50 [56] 82.9 µM | GI50 [57] 93.4 µM | GI50 [58] 18.1 µM | GI50 [35] 93.8 µM | GI50 [36] 27.5 µM
> 100 µM: TGI [1] | TGI [2] | TGI [38] | TGI [3] | TGI [39] | TGI [4] | TGI [5] | TGI [6] | TGI [40] | TGI [41] | TGI [7] | TGI [8] | TGI [42] | TGI [10] | TGI [11] | TGI [43] | TGI [13] | TGI [14] | TGI [15] | TGI [44] | TGI [45] | TGI [16] | TGI [46] | TGI [18] | TGI [19] | TGI [20] | TGI [21] | TGI [22] | TGI [47] | TGI [23] | TGI [24] | TGI [48] | TGI [25] | TGI [27] | TGI [49] | TGI [28] | TGI [29] | TGI [51] | TGI [52] | TGI [53] | TGI [30] | TGI [31] | TGI [32] | TGI [34] | TGI [56] | TGI [57] | TGI [35]

From PubChem BioAssay (NCI)
